Data taken from BindingDB's records for doi:10.1021/jm010087e (The University of Western Australia, 2001).

Experiment: Inhibitory activity against clostridium histolyticum collagenase

In order of rising Ki:
1. CC(C(=O)NO)N(Cc1ccccc1[N+](=O)[O-])C(=S)NC(=O)c1ccccc1 (centres undefined) [2-[3-Benzoyl-1-(2-nitro-benzyl)-thioureido]-N-hydroxy-propionamide]  0.008 µM
2. CC(C(=O)NO)N(Cc1ccccc1[N+](=O)[O-])Sc1ccc([N+](=O)[O-])cc1[N+](=O)[O-] (centres undefined) [2-[(2,4-Dinitro-phenylsulfanyl)-(2-nitro-benzyl)-amino]-N-hydroxy-propionamide]  0.009 µM
3. CC(C(=O)NO)N(Cc1ccccc1[N+](=O)[O-])S(=O)(=O)c1cc(Cl)cc(Cl)c1O (centres undefined) [2-[(3,5-Dichloro-2-hydroxy-benzenesulfonyl)-(2-nitro-benzyl)-amino]-N-hydroxy-propionamide]  0.01 µM
4. CC(C(=O)NO)N(Cc1ccccc1[N+](=O)[O-])C(=O)Nc1ccc(F)cc1F (centres undefined) [2-[3-(2,4-Difluoro-phenyl)-1-(2-nitro-benzyl)-ureido]-N-hydroxy-propionamide]  0.012 µM
5. CC(C(=O)NO)N(Cc1ccccc1[N+](=O)[O-])C(=O)Nc1ccc(Cl)c(Cl)c1 (centres undefined) [2-[3-(3,4-Dichloro-phenyl)-1-(2-nitro-benzyl)-ureido]-N-hydroxy-propionamide]  0.014 µM
6. CC(C(=O)NO)N(Cc1ccccc1[N+](=O)[O-])S(=O)(=O)c1cc(Cl)ccc1Cl (centres undefined) [2-[(2,5-Dichloro-benzenesulfonyl)-(2-nitro-benzyl)-amino]-N-hydroxy-propionamide]  0.014 µM
7. CC(C(=O)NO)N(Cc1ccccc1[N+](=O)[O-])C(=O)Nc1ccc(F)cc1 (centres undefined) [2-[3-(4-Fluoro-phenyl)-1-(2-nitro-benzyl)-ureido]-N-hydroxy-propionamide]  0.015 µM
8. CC(C(=O)NO)N(Cc1ccccc1[N+](=O)[O-])C(=O)Nc1cccc(Cl)c1 (centres undefined) [2-[3-(3-Chloro-phenyl)-1-(2-nitro-benzyl)-ureido]-N-hydroxy-propionamide]  0.017 µM
9. COc1ccc(S(=O)(=O)N(Cc2ccccc2[N+](=O)[O-])C(C)C(=O)NO)cc1 (centres undefined) [2-(N-(2-nitrobenzyl)-4-methoxyphenylsulfonamido)-N-hydroxypropanamide]  0.019 µM
10. CC(C(=O)NO)N(Cc1ccccc1[N+](=O)[O-])C(=O)Nc1ccc(Cl)cc1 (centres undefined) [2-[3-(4-Chloro-phenyl)-1-(2-nitro-benzyl)-ureido]-N-hydroxy-propionamide]  0.019 µM
11. CC(C(=O)O)N(Cc1ccccc1[N+](=O)[O-])S(=O)(=O)c1c(F)c(F)c(F)c(F)c1F (centres undefined) [2-[(2-Nitro-benzyl)-pentafluorobenzenesulfonyl-amino]-propionic acid]  0.3 µM
12. CC(C(=O)O)N(Cc1ccccc1[N+](=O)[O-])S(=O)(=O)c1cccc(C(F)(F)F)c1 (centres undefined) [2-[(2-Nitro-benzyl)-(3-trifluoromethyl-benzenesulfonyl)-amino]-propionic acid]  0.4 µM
13. CC(C(=O)O)N(Cc1ccccc1[N+](=O)[O-])C(=S)NC(=O)c1ccccc1 (centres undefined) [2-[3-Benzoyl-1-(2-nitro-benzyl)-thioureido]-propionic acid]  0.7 µM
14. CC(C(=O)O)N(Cc1ccccc1[N+](=O)[O-])S(=O)(=O)c1cccc2cccnc12 (centres undefined) [2-[(2-Nitro-benzyl)-(quinoline-8-sulfonyl)-amino]-propionic acid]  2 µM
15. CC(C(=O)O)N(Cc1ccccc1[N+](=O)[O-])S(=O)(=O)c1cccs1 (centres undefined) [2-[(2-Nitro-benzyl)-(thiophene-2-sulfonyl)-amino]-propionic acid]  2 µM
16. CC(C(=O)O)N(Cc1ccccc1[N+](=O)[O-])S(=O)(=O)C(F)(F)C(F)(F)C(F)(F)C(F)(F)F (centres undefined) [2-[(2-Nitro-benzyl)-(nonafluorobutane-1-sulfonyl)-amino]-propionic acid]  2.1 µM
17. CC(C(=O)O)N(Cc1ccccc1[N+](=O)[O-])S(=O)(=O)c1cc(Cl)cc(Cl)c1O (centres undefined) [2-[(3,5-Dichloro-2-hydroxy-benzenesulfonyl)-(2-nitro-benzyl)-amino]-propionic acid]  2.7 µM
18. CC(C(=O)O)N(Cc1ccccc1[N+](=O)[O-])S(=O)(=O)c1cc(Cl)ccc1Cl (centres undefined) [2-[(2,5-Dichloro-benzenesulfonyl)-(2-nitro-benzyl)-amino]-propionic acid]  3.4 µM
19. CC(C(=O)O)N(Cc1ccccc1[N+](=O)[O-])C(=O)NS(=O)(=O)c1ccccc1 (centres undefined) [2-((2-nitrobenzyl){[(phenylsulfonyl)amino]carbonyl}amino)propanoic acid]  3.6 µM
20. CC(C(=O)O)N(Cc1ccccc1[N+](=O)[O-])S(=O)(=O)c1ccccc1[N+](=O)[O-] (centres undefined) [2-[(2-Nitro-benzenesulfonyl)-(2-nitro-benzyl)-amino]-propionic acid]  4.4 µM
21. CC(C(=O)O)N(Cc1ccccc1[N+](=O)[O-])C(=O)Nc1cccc2ccccc12 (centres undefined) [2-[3-Naphthalen-1-yl-1-(2-nitro-benzyl)-ureido]-propionic acid]  5 µM
22. CC(C(=O)O)N(Cc1ccccc1[N+](=O)[O-])S(=O)(=O)C(Cl)(Cl)Cl (centres undefined) [2-[(2-Nitro-benzyl)-trichloromethanesulfonyl-amino]-propionic acid]  5 µM
23. CC(C(=O)O)N(Cc1ccccc1[N+](=O)[O-])S(=O)(=O)C(F)(F)F (centres undefined) [2-[(2-Nitro-benzyl)-trifluoromethanesulfonyl-amino]-propionic acid]  5.1 µM
24. CC(C(=O)O)N(Cc1ccccc1[N+](=O)[O-])Sc1ccc([N+](=O)[O-])cc1[N+](=O)[O-] (centres undefined) [2-[(2,4-Dinitro-phenylsulfanyl)-(2-nitro-benzyl)-amino]-propionic acid]  5.2 µM
25. CC(C(=O)O)N(Cc1ccccc1[N+](=O)[O-])C(=O)Nc1ccc(Cl)c(Cl)c1 (centres undefined) [2-[3-(3,4-Dichloro-phenyl)-1-(2-nitro-benzyl)-ureido]-propionic acid]  5.3 µM
26. Cc1cc(C)c(S(=O)(=O)N(Cc2ccccc2[N+](=O)[O-])C(C)C(=O)O)c(C)c1 (centres undefined) [2-[(2-Nitro-benzyl)-(2,4,6-trimethyl-benzenesulfonyl)-amino]-propionic acid]  6 µM
27. CC(C(=O)O)N(Cc1ccccc1[N+](=O)[O-])Sc1ccc([N+](=O)[O-])cc1 (centres undefined) [2-[(2-Nitro-benzyl)-(4-nitro-phenylsulfanyl)-amino]-propionic acid]  6 µM
28. CC(C(=O)O)N(Cc1ccccc1[N+](=O)[O-])C(=O)Nc1ccc(F)cc1 (centres undefined) [2-[3-(4-Fluoro-phenyl)-1-(2-nitro-benzyl)-ureido]-propionic acid]  6.2 µM
29. CC(C(=O)O)N(Cc1ccccc1[N+](=O)[O-])Sc1ccccc1[N+](=O)[O-] (centres undefined) [2-[(2-Nitro-benzyl)-(2-nitro-phenylsulfanyl)-amino]-propionic acid]  6.2 µM
30. CC(C(=O)O)N(Cc1ccccc1[N+](=O)[O-])C(=O)Nc1ccc(F)cc1F (centres undefined) [2-[3-(2,4-Difluoro-phenyl)-1-(2-nitro-benzyl)-ureido]-propionic acid]  6.5 µM
31. CC(C(=O)O)N(Cc1ccccc1[N+](=O)[O-])C(=O)Nc1cccc(Cl)c1 (centres undefined) [2-[3-(3-Chloro-phenyl)-1-(2-nitro-benzyl)-ureido]-propionic acid]  6.6 µM
32. CC(C(=O)O)N(Cc1ccccc1[N+](=O)[O-])C(=O)Nc1ccc(Cl)cc1 (centres undefined) [2-[3-(4-Chloro-phenyl)-1-(2-nitro-benzyl)-ureido]-propionic acid]  6.8 µM
33. Cc1ccc(S(=O)(=O)N(Cc2ccccc2[N+](=O)[O-])C(C)C(=O)O)cc1 (centres undefined) [2-[(2-Nitro-benzyl)-(toluene-4-sulfonyl)-amino]-propionic acid]  17 µM
34. CC(C(=O)O)N(Cc1ccccc1[N+](=O)[O-])S(=O)(=O)Cc1ccccc1 (centres undefined) [2-[(2-Nitro-benzyl)-phenylmethanesulfonyl-amino]-propionic acid]  18 µM
